Experimental data reported in patent publication US8835458B2 (Hanmi Science Co., Ltd, priority 2010, dated 2014).
Structures can show the parent of a compound that is named as a salt. Where two headings read alike, the source gives them in different places.

How the values were obtained:
[1] = system: MDA-MB-231 breast cancer cell lines; assay: Evaluation of inhibition on cell growth (MTS); assay type: cell-based; conditions: Homo sapiens, MDA-MB-231, 120 hours
Procedure, shortened: (§1)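 Cells seeded at 3,000˜5,000 cells/100 μL, grown 24 h at 37° C (MDA-MB-231 under atmospheric conditions), then exposed to 10 μM˜0.1 nM compound. MDA-MB-231 cultured 120 h, read by MTS at 490 nm; fibroblasts cultured 72 h, TCA-fixed, SRB-stained, read at 540 nm. GI50 from growth relative to untreated and medium-only cells.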

[2] = Toxicity to normal cells (SRB); assay type: cell-based, mouse; conditions: mouse, Balb/c3t3 fibroblasts (normal cell line), read-out: BalB/C (GI50)
Procedure, shortened: as §1

[3] = Toxicity to normal cells (SRB); assay type: cell-based, human; conditions: human, Hs27 fibroblasts (normal cell line)
Procedure, shortened: as §1

caspase 3/7 = assay: Evaluation of caspase activity (Caspase-Glo 3/7 Assay Kit); assay type: cell-based; conditions: MDA-MB-231 cells, 12 hours, compared to untreated MDA-MB-231 cells; 0.5, 1, 5 μM tested
Method: (§2) MDA-MB-231 breast cancer cells (ATCC #HTB-26) were plated in 96-well plates at a density of 1.0 1.5×10^4 cells/well. […] Then, media were removed and the cells were washed two times with PBS at 4° C. The cells were treated with a solution of the analysis samples and media (1:1) in an amount of 140 μL/well using Caspase-GloTM 9 Assay Kit (Cat#. […]; Promega, USA) and Caspase-GloTM 3/7 Assay Kit (Cat#. […]; Promega, USA). After the cells were incubated at 37° C. for 2 hours, luminescence was measured using InfiniteTM M1000 multi reader (Tecan). […] The values were represented as “***” for six fold or more, “**” for 4 fold to below 6 fold, and “*” for 1 fold to below 4 fold, as compared to that of untreated, normal MDA-MB-231 breast cancer cell lines.

caspase 9 = assay: Evaluation of caspase activity (Caspase-Glo 9 Assay Kit); assay type: cell-based; conditions: MDA-MB-231 cells, 16 hours, compared to untreated MDA-MB-231 cells; 0.5, 1, 5 μM tested
Method: as §2

| GI50 [1] [µM] | SMILES | GI50 at 72 h [2] [µM] | GI50 at 72 h [3] [µM] | Caspase-3 (caspase 3/7) | Caspase-9 (caspase 9) |
| --- | --- | --- | --- | --- | --- |
| ≤ 0.1 | C#CCO[C@H](C)[C@H](NC(=O)[C@H](C)NC)C(=O)N1CCC[C@H]1C(=O)Nc1cc2c(Nc3ccc(F)c(Cl)c3F)ncnc2cc1OC [Example 45, (S)—N-(4-(3-chloro-2,4-difluorophenylamino)-7-methoxyquinazolin-6-yl)-1-((2S,3R)-2-((S)-2-(methylamino)propanamido)-3-(prop-2-ynyloxy)butanoyl)pyrrolidine-2-carboxamide hydrochloride] | > 10 | > 10 |  |  |
| ≤ 0.1 | CN[C@@H](C)C(=O)N[C@H](C(=O)N1CCC[C@H]1C(=O)Nc1cc2c(Nc3cccc(OC)c3)ncnc2cc1OC)C(C)(C)C [Example 57, (S)-1-((S)-3,3-dimethyl-2-((S)-2-(methylamino)propanamido)butanoyl)-N-(7-methoxy-4-(3-methoxyphenylamino)quinazolin-6-yl)pyrrolidine-2-carboxamide hydrochloride] | > 10 | > 10 |  |  |
| ≤ 0.1 | CN[C@@H](C)C(=O)N[C@H](C(=O)N1CCC[C@H]1C(=O)Nc1cc2c(Nc3ccc(NC(C)=O)cc3)ncnc2cc1OC)C(C)(C)C [Example 69, (S)—N-(4-(4-acetamidophenylamino)-7-methoxyquinazolin-6-yl)-1-((S)-3,3-dimethyl-2-((S)-2-(methylamino)propanamido)butanoyl)pyrrolidine-2-carboxamide] | > 10 | > 10 |  |  |
| ≤ 0.1 | CN[C@@H](C)C(=O)N[C@H](C(=O)N1CCC[C@H]1C(=O)Nc1cc2c(N3CCCCC3)ncnc2cc1OC)C(C)(C)C [Example 24, (S)-1-((S)-3,3-dimethyl-2-((S)-2-(methylamino)propanamido)butanoyl)-N-(7-methoxy-4-(piperidin-1-yl)quinazolin-6-yl)pyrrolidine-2-carboxamide hydrochloride] | > 10 | > 10 |  |  |
| ≤ 0.1 | CCN1CCN(c2ccc(Nc3ncnc4cc(OC)c(NC(=O)[C@@H]5CCCN5C(=O)[C@@H](NC(=O)[C@H](C)NC)C(C)(C)C)cc34)cc2C(F)(F)F)CC1 [Example 70, (S)-1-((S)-3,3-dimethyl-2-((S)-2-(methylamino)propanamido)butanoyl)-N-(4-(4-(4-ethylpiperazin-1-yl)-3-(trifluoromethyl)phenylamino)-7-methoxyquinazolin-6-yl)pyrrolidine-2-carboxamide dihydrochloride] | > 10 | > 10 |  |  |
| ≤ 0.1 | CNc1ncnc2cc(OC)c(NC(=O)[C@@H]3CCCN3C(=O)[C@@H](NC(=O)[C@H](C)NC)C(C)(C)C)cc12 [Example 23, (S)-1-((S)-3,3-dimethyl-2-((S)-2-(methylamino)propanamido)butanoyl)-N-(7-methoxy-4-(methylamino)quinazolin-6-yl)pyrrolidine-2-carboxamide] | > 10 | > 10 |  |  |
| ≤ 0.1 | CN[C@@H](C)C(=O)N[C@H](C(=O)N1CCC[C@H]1C(=O)Nc1cc2c(Nc3cccc(Cl)c3F)ncnc2cc1OC)C(C)(C)C.Cl [Example 7, hydrochloride] | > 10 | > 10 |  |  |
| ≤ 0.1 | CCN(CC)c1ccc(Nc2ncnc3cc(OC)c(NC(=O)[C@@H]4CCCN4C(=O)[C@@H](NC(=O)[C@H](C)NC)C(C)(C)C)cc23)cc1 [Example 68, (S)-1-((S)-3,3-dimethyl-2-((S)-2-(methylamino)propanamido)butanoyl)-N-(7-methoxy-4-(4-diethylamino)phenylamino)quinazolin-6-yl)pyrrolidine-2-carboxamide dihydrochloride] | > 10 | > 10 |  |  |
| ≤ 0.1 | CN[C@@H](C)C(=O)N[C@H](C(=O)N1CCC[C@H]1C(=O)Nc1cc2c(Nc3ccc(Cl)cc3F)ncnc2cc1OC)C(C)(C)C [Example 29, (S)—N-(4-(4-chloro-2-fluorophenylamino)-7-methoxyquinazolin-6-yl)-1-((S)-3,3-dimethyl-2-((S)-2-(methylamino)propanamido)butanoyl)pyrrolidine-2-carboxamide hydrochloride] | > 10 | > 10 |  |  |
| ≤ 0.1 | CN[C@@H](C)C(=O)N[C@H](C(=O)N1CCC[C@H]1C(=O)Nc1ccc2ncnc(Nc3ccc(F)c(Cl)c3F)c2c1)C(C)(C)C [Example 48, (S)—N-(4-(3-chloro-2,4-difluorophenylamino)quinazolin-6-yl)-1-((S)-3,3-dimethyl-2-((S)-2-(methylamino)propanamido)butanoyl)pyrrolidine-2-carboxamide] | > 10 | > 10 |  |  |
| ≤ 0.1 | CN[C@@H](C)C(=O)N[C@H](C(=O)N1CCC[C@H]1C(=O)Nc1cc2c(Nc3c(Cl)ccc4c3OCO4)ncnc2cc1OC)C(C)(C)C [Example 51, (S)—N-(4-(5-chlorobenzo[d][1,3]dioxol-4-ylamino)-7-methoxyquinazolin-6-yl)-1-((S)-3,3-dimethyl-2-((S)-2-(methylamino)propanamido)butanoyl)pyrrolidine-2-carboxamide hydrochloride] | > 10 | > 10 |  |  |
| ≥ 1 | C=CC(=O)N[C@@H](C)C(=O)N[C@H](C(=O)N1CCC[C@H]1C(=O)Nc1cc2c(Nc3ccc(F)c(Cl)c3F)ncnc2cc1OC)C(C)(C)C [Example 13, (S)-1-((S)-2-((S)-2-acrylamidopropanamido)-3,3-dimethylbutanoyl)-N-(4-(3-chloro-2,4-difluorophenylamino)-7-methoxyquinazolin-6-yl)pyrrolidine-2-carboxamide hydrochloride] | > 10 | > 10 |  |  |
| ≤ 0.1 | CN[C@@H](C)C(=O)N[C@H](C(=O)N1CCC[C@H]1C(=O)Nc1cc2c(Nc3ccccc3N3CCOCC3)ncnc2cc1OC)C(C)(C)C [Example 47, (S)-1-((S)-3,3-dimethyl-2-((S)-2-(methylamino)propanamido)butanoyl)-N-(7-methoxy-4-(2-morpholinophenylamino)quinazolin-6-yl)pyrrolidine-2-carboxamide] | > 10 | > 10 |  |  |
| ≤ 0.1 | CN[C@@H](C)C(=O)N[C@H](C(=O)N1CCC[C@H]1C(=O)Nc1cc2c(N[C@@H](C)c3ccccc3)ncnc2cc1OC)C(C)(C)C [Example 34, (S)-1-((S)-3,3-dimethyl-2-((S)-2-(methylamino)propanamido)butanoyl)-N-(7-methoxy-4-((S)-1-phenylmethylamino)quinazolin-6-yl)pyrrolidine-2-carboxamide hydrochloride] | > 10 | > 10 |  |  |
|  | CN[C@@H](C)C(=O)N[C@H](C(=O)N1CCC[C@H]1C(=O)Nc1cc2c(Nc3cccc(Cl)c3F)ncnc2cc1OC)C(C)(C)C.Cl [Example 7] |  |  | *** (six fold or more) | *** (six fold or more) |
| ≤ 0.1 | CN[C@@H](C)C(=O)N[C@H](C(=O)N1CCC[C@H]1C(=O)Nc1cc2c(Nc3ccc(OC)cc3)ncnc2cc1OC)C(C)(C)C [Example 49, (S)-1-((S)-3,3-dimethyl-2-((S)-2-(methylamino)propanamido)butanoyl)-N-(7-methoxy-4-(4-methoxyphenylamino)quinazolin-6-yl)pyrrolidine-2-carboxamide hydrochloride] | > 10 | > 10 |  |  |
| ≤ 0.1 | CN[C@@H](C)C(=O)N[C@H](C(=O)N1CCC[C@H]1C(=O)Nc1cc2c(Nc3ccc(N4CCCC4)cc3)ncnc2cc1OC)C(C)(C)C [Example 65, (S)-1-((S)-3,3-dimethyl-2-((S)-2-(methylamino)propanamido)butanoyl)-N-(7-methoxy-4-(4-(pyrrolidin-1-yl)phenylamino)quinazolin-6-yl)pyrrolidine-2-carboxamide dihydrochloride] | > 10 | > 10 |  |  |
| ≤ 0.1 | CN[C@@H](C)C(=O)N[C@H](C(=O)N1CCC[C@H]1C(=O)Nc1cc2c(Nc3ccccc3C)ncnc2cc1OC)C(C)(C)C [Example 27, (S)—N-(4-(o-toluidino)-7-methoxyquinazolin-6-yl)-1-((S)-3,3-dimethyl-2-((S)-2-(methylamino)propanamido)butanoyl)pyrrolidine-2-carboxamide hydrochloride] | > 10 | > 10 |  |  |
| ≤ 0.1 | CN[C@@H](C)C(=O)N[C@H](C(=O)N1CCC[C@H]1C(=O)Nc1cc2c(Nc3ccc(N(C)C)cc3)ncnc2cc1OC)C(C)(C)C [Example 64, (S)-1-((S)-3,3-dimethyl-2-((S)-2-(methylamino)propanamido)butanoyl)-N-(7-methoxy-4-(4-dimethylamino)phenylamino)quinazolin-6-yl)pyrrolidine-2-carboxamide dihydrochloride] | > 10 | > 10 |  |  |
